The supplement of paper PMC11061612

Tests used:
Test in all cases: combination Emax (second highest fraction inhibited in the dose matrix, 72 h); higher = more inhibition; extreme values may be limits of the assay
[1] = test system: BE-13 (T-Lymphoblastic Leukemia)
Outline: (§1)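 After 24 hours at 37°C and 5% CO2 in 1536-well plates, cells in DMEM/F12 or RPMI plus 10% FBS received two-drug dose matrices for 72 hours. Viability came from CellTiter-Glo 2.0 luminescence and was scaled as inhibition, anchored at 0 by vehicle wells and at 1 by blank wells. Combination Emax is taken as the second-highest inhibition in the matrix, and Bliss excess as the observed combination effect less EA + EB − EA·EB, with EA and EB the single-agent effects.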

BE2-M17 (Neuroblastoma) = test system: BE2-M17 (Neuroblastoma)
Outline: as §1

[2] = test system: BFTC-909 (Kidney Carcinoma)
Outline: as §1

[3] = test system: Detroit562 (Head and Neck Carcinoma)
Outline: as §1

[4] = test system: ESS-1 (Other Solid Carcinomas)
Outline: as §1

GAMG (Glioblastoma) = test system: GAMG (Glioblastoma)
Outline: as §1

[5] = test system: HuCCT1 (Biliary Tract Carcinoma)
Outline: as §1

KS-1 (Glioblastoma) = test system: KS-1 (Glioblastoma)
Outline: as §1

[6] = test system: KYAE-1 (Esophageal Adenocarcinoma)
Outline: as §1

[7] = test system: L-428 (Hodgkin's Lymphoma)
Outline: as §1

[8] = test system: LNZTA3WT4 (Low Grade Glioma)
Outline: as §1

[9] = test system: LS-123 (Colorectal Carcinoma)
Outline: as §1

[10] = test system: MHH-CALL-2 (B-Lymphoblastic Leukemia)
Outline: as §1

MPP-89 (Mesothelioma) = test system: MPP-89 (Mesothelioma)
Outline: as §1

NCI-H2052 (Mesothelioma) = test system: NCI-H2052 (Mesothelioma)
Outline: as §1

NCI-H2722 (Mesothelioma) = test system: NCI-H2722 (Mesothelioma)
Outline: as §1

[11] = test system: OV-56 (Ovarian Carcinoma)
Outline: as §1

[12] = test system: OVCAR-5 (Ovarian Carcinoma)
Outline: as §1

[13] = test system: SNU-16 (Gastric Carcinoma)
Outline: as §1

[14] = test system: SW1710 (Bladder Carcinoma)
Outline: as §1

SMILES | combination Emax [1] | combination Emax (BE2-M17 (Neuroblastoma)) | combination Emax [2] | combination Emax [3] | combination Emax [4] | combination Emax (GAMG (Glioblastoma)) | combination Emax [5] | combination Emax (KS-1 (Glioblastoma)) | combination Emax [6] | combination Emax [7] | combination Emax [8] | combination Emax [9] | combination Emax [10] | combination Emax (MPP-89 (Mesothelioma)) | combination Emax (NCI-H2052 (Mesothelioma)) | combination Emax (NCI-H2722 (Mesothelioma)) | combination Emax [11] | combination Emax [12] | combination Emax [13] | combination Emax [14]
NC1(C(=O)N[C@@H](CCO)c2ccc(Cl)cc2)CCN(c2ncnc3[nH]ccc23)CC1 [Capivasertib] + CCN(CCO)CCCOc1ccc2c(Nc3cc(CC(=O)Nc4cccc(F)c4)[nH]n3)ncnc2c1 [AZD2811] (first compound max 10 µM, 7x7, partner max 1 µM) | 0.733 | 0.493 | 0.638 | 0.892 | 0.812 | 0.669 | 0.309 | 0.547 | 0.156 | 0.302 | 0.475 | 0.398 | 0.532 | 0.435 | 0.427 | 0.515 | 0.249 | 0.401 | 0.663 | 0.36
NC1(C(=O)N[C@@H](CCO)c2ccc(Cl)cc2)CCN(c2ncnc3[nH]ccc23)CC1 [Capivasertib] + COc1nnc2ccc(N3CCC(c4ccc(OCCN5CCN(C)C(=O)[C@H]5C)cc4)CC3)nn12 [AZD5153] (first compound max 10 µM, 7x7, partner max 1 µM) | 0.644 | 0.696 | 0.678 | 0.925 | 0.738 | 0.724 | 0.609 | 0.755 | 0.223 | 0.742 | 0.57 | 0.418 | 0.338 | 0.495 | 0.427 | 0.473 | 0.41 | 0.624 | 0.854 | 0.587
NC1(C(=O)N[C@@H](CCO)c2ccc(Cl)cc2)CCN(c2ncnc3[nH]ccc23)CC1 [Capivasertib] + C[C@@H]1COCCN1C2=NC(=NC(=C2)C3(CC3)[S@](=N)(=O)C)C4=C5C=CNC5=NC=C4 [AZD6738] (first compound max 10 µM, 7x7, partner max 10 µM) | 0.731 | 0.702 | 0.869 | 0.918 | 0.959 | 0.705 | 0.688 | 0.653 | 0.165 | 0.77 | 0.79 | 0.457 | 0.954 | 0.545 | 0.57 | 0.533 | 0.542 | 0.742 | 0.973 | 0.596
NC1(C(=O)N[C@@H](CCO)c2ccc(Cl)cc2)CCN(c2ncnc3[nH]ccc23)CC1 [Capivasertib] + Cn1cnc2c(F)c(Nc3ccc(Br)cc3Cl)c(C(=O)NOCCO)cc21 [Selumetinib] (first compound max 10 µM, 7x7, partner max 10 µM) | 0.276 | 0.654 | 0.734 | 0.798 | 0.526 | 0.653 | 0.717 | 0.551 | 0.13 | 0.126 | 0.445 | 0.555 | 0.582 | 0.386 | 0.443 | 0.336 | 0.398 | 0.69 | 0.461 | 0.409
CS(=O)(=O)CCNCc1ccc(-c2ccc3ncnc(Nc4ccc(OCc5cccc(F)c5)c(Cl)c4)c3c2)o1 [Lapatinib] + C[C@@H](Oc1cc(-c2cnn(C3CCNCC3)c2)cnc1N)c1c(Cl)ccc(F)c1Cl [Crizotinib] (first compound max 10 µM, 7x7, partner max 10 µM) | 0.988 | 0.868 | 0.869 | 1 | 0.917 | 0.82 | 0.883 | 0.79 | 0.842 | 0.913 | 0.872 | 0.746 | 1 | 0.696 | 0.61 | 0.449 | 0.872 | 0.834 | 0.973 | 0.846
CC(=O)c1c(C)c2cnc(Nc3ccc(N4CCNCC4)cn3)nc2n(C2CCCC2)c1=O [Palbociclib] + CC1(C)CCC(CN2CCN(c3ccc(C(=O)NS(=O)(=O)c4ccc(NCC5CCOCC5)c([N+](=O)[O-])c4)c(Oc4cnc5[nH]ccc5c4)c3)CC2)=C(c2ccc(Cl)cc2)C1 [Venetoclax] (first compound max 10 µM, 7x7, partner max 1 µM) | 0.588 | 0.386 | 0.326 | 0.543 | 0.294 | 0.231 | 0.309 | 0.348 | 0.132 | 0.467 | 0.307 | 0.138 | 0.155 | 0.0837 | 0.133 | 0.118 | 0.117 | 0.346 | 0.699 | 0.246
CC(=O)c1c(C)c2cnc(Nc3ccc(N4CCNCC4)cn3)nc2n(C2CCCC2)c1=O [Palbociclib] + Cc1c2c(nn1C)CSCc1cc(n(C)n1)CSc1cc(c3ccccc3c1)OCCCc1c(C(=O)O)n(C)c3c-2c(Cl)ccc13 [AZD5991] (first compound max 10 µM, 7x7, partner max 1 µM) | 0.815 | 0.409 | 0.406 | 0.569 | 0.266 | 0.305 | 0.32 | 0.266 | 0.126 | 0.353 | 0.411 | 0.207 | 0.998 | 0.261 | 0.304 | 0.213 | 0.0925 | 0.389 | 0.973 | 0.29
CC(=O)c1c(C)c2cnc(Nc3ccc(N4CCNCC4)cn3)nc2n(C2CCCC2)c1=O [Palbociclib] + Cn1cnc2c(F)c(Nc3ccc(Br)cc3Cl)c(C(=O)NOCCO)cc21 [Selumetinib] (first compound max 10 µM, 7x7, partner max 10 µM) | 0.691 | 0.606 | 0.358 | 0.588 | 0.283 | 0.314 | 0.556 | 0.438 | 0.124 | 0.395 | 0.333 | 0.428 | 0.31 | 0.14 | 0.189 | 0.113 | 0.141 | 0.587 | 0.771 | 0.339
COc1cccc(OCCCN)c1-c1cc(Nc2cnc(C#N)cn2)n[nH]1 [Prexasertib] + CCc1c2c(nc3ccc(O)cc13)-c1cc3c(c(=O)n1C2)COC(=O)[C@]3(O)CC [SN-38] (first compound max 1 µM, 7x7, partner max 0.3 µM) | 1 | 0.999 | 0.996 | 1 | 1 | 0.993 | 0.875 | 0.536 | 0.79 | 0.979 | 0.949 | 0.871 | 1 | 0.897 | 0.853 | 0.471 | 0.996 | 0.89 | 1 | 0.86
Cn1cnc2c(F)c(Nc3ccc(Br)cc3Cl)c(C(=O)NOCCO)cc21 [Selumetinib] + C=CCn1c(=O)c2cnc(Nc3ccc(N4CCN(C)CC4)cc3)nc2n1-c1cccc(C(C)(C)O)n1 [AZD1775] (first compound max 10 µM, partner max 1 µM) | 1 | 0.887 | 0.646 | 0.639 | 0.936 | 0.527 | 0.793 | 0.277 | 0.116 | 0.808 | 0.57 | 0.542 | 0.793 | 0.566 | 0.284 | 0.304 | 0.0799 | 0.58 | 0.802 | 0.264
Cn1cnc2c(F)c(Nc3ccc(Br)cc3Cl)c(C(=O)NOCCO)cc21 [Selumetinib] + CC(C)n1c(=O)n(C)c2cnc3cc(F)c(-c4ccc(OCCCN5CCCCC5)nc4)cc3c21 [AZD1390] (first compound max 10 µM, 7x7, partner max 0.3 µM) | 0.179 | 0.508 | 0.184 | 0.367 | 0.246 | 0.151 | 0.517 | 0.197 | 0.144 | 0.0975 | 0.226 | 0.488 | 0.256 | 0.0892 | 0.193 | 0.0639 | 0.133 | 0.563 | 0.36 | 0.196
Cn1cnc2c(F)c(Nc3ccc(Br)cc3Cl)c(C(=O)NOCCO)cc21 [Selumetinib] + CCN(CCO)CCCOc1ccc2c(Nc3cc(CC(=O)Nc4cccc(F)c4)[nH]n3)ncnc2c1 [AZD2811] (first compound max 10 µM, 7x7, partner max 1 µM) | 0.735 | 0.644 | 0.314 | 0.743 | 0.462 | 0.52 | 0.525 | 0.298 | 0.0661 | 0.235 | 0.226 | 0.425 | 0.888 | 0.204 | 0.232 | 0.186 | 0.116 | 0.507 | 0.561 | 0.214
Cn1cnc2c(F)c(Nc3ccc(Br)cc3Cl)c(C(=O)NOCCO)cc21 [Selumetinib] + C[C@@H]1COCCN1C2=NC(=NC(=C2)C3(CC3)[S@](=N)(=O)C)C4=C5C=CNC5=NC=C4 [AZD6738] (first compound max 10 µM, 7x7, partner max 10 µM) | 0.784 | 0.83 | 0.797 | 0.88 | 0.953 | 0.469 | 0.703 | 0.334 | 0.0615 | 0.69 | 0.712 | 0.517 | 0.951 | 0.329 | 0.395 | 0.277 | 0.29 | 0.671 | 0.966 | 0.26
